Measured values published in US10392368B2, “Pyrazolo and triazolo bicyclic compounds as JAK kinase inhibitors” (THERAVANCE BIOPHARMA R&D IP, LLC, priority 2017, dated 2019).
Where two headings read alike, the source gives them in different places.

Key:
JAK1 = target: T1, JAK1 (Homo sapiens, UniProt P23458); assay: Biochemical JAK1 kinase assay (LanthaScreen); conditions: for Ki: read-out: JAK 1 (pKi) (converted)
T1 construct: GST; purchased Life Technologies
Procedure, shortened: (§1)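 TR-FRET read-out: terbium anti-pSTAT1 (pTyr701) antibody, 2 nM, with 10 mM EDTA quench, emission ratio 520/495 nm. GST-JAK phosphorylates GFP-STAT1 peptide for 1 h at ambient temperature after 1 h compound pre-incubation. pIC50 from dose-response converted to pKi by Cheng-Prusoff.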

[1] = system: IL-2 stimulated pSTAT5 in Tall-1 T cells; assay: Cellular JAK3 potency assay: inhibition of IL-2 stimulated pSTAT5 in Tall-1 T cells; type: cell-based, human; conditions: for IC50: Homo sapiens, read-out: Tall-1 (pIC50) (converted)
Procedure, shortened: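 Inhibition of IL-2-induced pSTAT5 was quantified by AlphaLisa in Tall-1 cell lysates. Compound exposure lasted 1 h before 30 min stimulation with 300 ng/ml IL-2 final.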

JAK3 = target: T2, JAK3 (Homo sapiens, UniProt P52333); assay: Biochemical JAK3 kinase assay (LanthaScreen); design: GST; purchased Life Technologies; conditions: for Ki: read-out: JAK 3 (pKi) (converted)
T2 sequence (P52333 1-1124): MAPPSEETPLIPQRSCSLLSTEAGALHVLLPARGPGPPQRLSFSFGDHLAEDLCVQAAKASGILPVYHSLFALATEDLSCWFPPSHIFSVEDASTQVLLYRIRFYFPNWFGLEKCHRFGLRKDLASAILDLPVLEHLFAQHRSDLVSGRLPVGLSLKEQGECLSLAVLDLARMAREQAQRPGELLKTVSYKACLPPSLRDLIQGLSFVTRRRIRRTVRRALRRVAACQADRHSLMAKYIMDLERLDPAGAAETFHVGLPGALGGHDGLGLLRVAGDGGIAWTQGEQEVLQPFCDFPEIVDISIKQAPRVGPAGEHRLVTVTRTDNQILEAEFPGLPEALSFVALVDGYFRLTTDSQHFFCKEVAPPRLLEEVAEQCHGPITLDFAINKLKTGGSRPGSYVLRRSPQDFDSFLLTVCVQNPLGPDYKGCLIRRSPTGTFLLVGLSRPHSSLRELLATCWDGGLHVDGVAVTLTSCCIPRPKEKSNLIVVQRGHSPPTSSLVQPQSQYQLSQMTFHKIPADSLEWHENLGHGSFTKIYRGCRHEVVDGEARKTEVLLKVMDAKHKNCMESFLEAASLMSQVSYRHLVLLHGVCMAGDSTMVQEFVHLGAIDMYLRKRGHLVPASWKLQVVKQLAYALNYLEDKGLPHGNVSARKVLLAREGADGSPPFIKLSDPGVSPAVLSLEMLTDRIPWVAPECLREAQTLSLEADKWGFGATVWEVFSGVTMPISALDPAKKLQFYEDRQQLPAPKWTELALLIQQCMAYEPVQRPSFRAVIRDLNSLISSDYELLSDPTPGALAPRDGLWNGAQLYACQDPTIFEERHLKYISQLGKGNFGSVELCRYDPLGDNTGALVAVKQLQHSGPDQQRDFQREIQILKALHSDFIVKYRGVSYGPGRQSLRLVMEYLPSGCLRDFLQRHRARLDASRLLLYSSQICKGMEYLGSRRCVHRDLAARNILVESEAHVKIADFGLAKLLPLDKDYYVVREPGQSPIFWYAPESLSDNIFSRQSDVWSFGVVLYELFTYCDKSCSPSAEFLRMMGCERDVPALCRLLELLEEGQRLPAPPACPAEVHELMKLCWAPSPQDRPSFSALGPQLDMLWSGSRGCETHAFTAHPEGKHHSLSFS
Procedure, shortened: as §1

[2] = IL-2 stimulated pSTAT5, Tall-1 T cells
[3] = selectivity JAK3 over JAK1, difference of pKi
[4] = TALL-1, IL-2 stimulated pSTAT5, Tall-1 T cells
[5] = TALL-1, IL-2 stimulated pSTAT5 in Tall-1 T cells
[6] = selectivity: difference of pKi JAK3 and pKi JAK1
[7] = IL-2 stimulated pSTAT5 in Tall-1 T cells

T1 sequence (P23458 whole entry): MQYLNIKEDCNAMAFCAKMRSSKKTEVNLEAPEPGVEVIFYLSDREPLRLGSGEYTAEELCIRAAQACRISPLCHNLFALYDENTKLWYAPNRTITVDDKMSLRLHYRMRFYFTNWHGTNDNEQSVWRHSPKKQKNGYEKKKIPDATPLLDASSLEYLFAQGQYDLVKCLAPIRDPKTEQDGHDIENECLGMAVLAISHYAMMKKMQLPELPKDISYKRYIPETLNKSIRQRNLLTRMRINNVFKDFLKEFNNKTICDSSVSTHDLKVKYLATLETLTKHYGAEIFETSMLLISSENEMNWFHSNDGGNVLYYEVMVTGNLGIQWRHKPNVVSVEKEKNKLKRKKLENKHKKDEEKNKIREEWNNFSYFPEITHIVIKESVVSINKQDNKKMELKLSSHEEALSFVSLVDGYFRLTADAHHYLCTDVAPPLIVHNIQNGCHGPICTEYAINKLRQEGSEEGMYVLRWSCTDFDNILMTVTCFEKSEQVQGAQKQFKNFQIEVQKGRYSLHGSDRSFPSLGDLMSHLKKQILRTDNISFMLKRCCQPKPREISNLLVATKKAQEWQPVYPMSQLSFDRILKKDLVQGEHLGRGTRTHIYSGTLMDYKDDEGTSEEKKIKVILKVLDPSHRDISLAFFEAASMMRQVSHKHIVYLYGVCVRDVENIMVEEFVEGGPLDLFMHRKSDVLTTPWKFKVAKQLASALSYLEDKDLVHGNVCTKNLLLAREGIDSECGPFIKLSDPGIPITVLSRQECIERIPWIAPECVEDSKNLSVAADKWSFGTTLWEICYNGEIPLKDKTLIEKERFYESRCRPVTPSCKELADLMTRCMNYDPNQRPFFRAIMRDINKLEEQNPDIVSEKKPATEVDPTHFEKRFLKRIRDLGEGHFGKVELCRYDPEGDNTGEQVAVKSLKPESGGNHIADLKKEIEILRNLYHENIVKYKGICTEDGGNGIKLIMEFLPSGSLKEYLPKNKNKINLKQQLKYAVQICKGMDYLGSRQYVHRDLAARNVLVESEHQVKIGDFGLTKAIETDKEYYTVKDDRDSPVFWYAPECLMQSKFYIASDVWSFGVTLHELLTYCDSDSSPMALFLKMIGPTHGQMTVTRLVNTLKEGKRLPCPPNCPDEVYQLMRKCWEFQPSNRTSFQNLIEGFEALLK

SMILES | JAK 1 (pKi) (JAK1) | Tall-1 (pIC50) [1, 2] | JAK 3 (pKi) (JAK3) | JAK3 (pKi)-JAK1 (pKi) (JAK3; [3]) | Ki (JAK1) [nM] | IC50 [1, 4] [nM] | Ki (JAK3) [nM] | IC50 [1, 5] [nM] | JAK3 (pKi)-JAK1 (pKi) (JAK3; [6]) | Tall-1 (pIC50) [1, 7]
C=CC(=O)N1C2CCC1CC(Oc1nc(-c3ccc(O)c(F)c3)cc3[nH]ncc13)C2 (stereo not drawn) [Compound 9-10] | E (a pKi value of 7 or below (Ki of 100 nM or above)) | A (a pIC50 value≥7.5 (IC50≤32 nM)) | B (a pKi value between 9 and 10 (Ki between 1 nM and 0.1 nM)) | A (a value of 3 or above) | – | – | – | – | – | –
C=CC(=O)N1CC[C@@H](Nc2cc(-c3ccc(O)cc3)cc3[nH]ncc23)C1 [Compound 12-18] | – | – | – | B (a value of 2.3 to 3) | 10 to 100 | 31.6 to 200 | < 0.1 | – | – | –
C=CC(=O)N1CC2(CC(Oc3cc(-c4ccc(O)cc4)cc4[nH]ncc34)C2)C1 [Compound 12-21] | – | – | – | B (a value of 2.3 to 3) | > 100 | < 31.6 | 0.1 to 1 | – | – | –
C=CC(=O)N1CCC(COc2nc(-c3ccc(O)c(F)c3)cc3[nH]ncc23)CC1 [Compound 14-8] | D (a pKi value between 7 and 8 (Ki between 100 nM and 10 nM)) | A (a pIC50 value≥7.5 (IC50≤32 nM)) | A (a pKi value≥10 (Ki≤0.1 nM)) | B (a value of 2.3 to 3) | – | – | – | – | – | –
C=CC(=O)N1CCC(C)(Oc2cc(-c3ccc(O)c(F)c3)cc3[nH]ncc23)CC1 [Compound 6-7] | – | – | – | A (a value of 3 or above) | > 100 | < 31.6 | 0.1 to 1 | – | – | –
C=CC(=O)N1CCC(Oc2nc(-c3ccc(O)c(F)c3)nc3[nH]ncc23)CC1 [Compound 6-23] | – | – | – | A (a value of 3 or above) | > 100 | 200 to 1000 | 0.1 to 1 | – | – | –
O=C(/C=C/CN1CCSCC1)N1CC(COc2cc(-c3ccc(O)cc3)cc3[nH]ncc23)C1 [Compound 3-130] | – | – | – | – | > 100 | – | 0.1 to 1 | 31.6 to 200 | A (a value of 3 or above) | –
C=CC(=O)N1CC[C@@H](Sc2cc(-c3ccc(O)cc3)cc3[nH]ncc23)C1 [Compound 12-2] | E (a pKi value of 7 or below (Ki of 100 nM or above)) | B (a pIC50 value between 6.7 (included) and 7.5 (IC50 between 200 nM and 32 nM)) | B (a pKi value between 9 and 10 (Ki between 1 nM and 0.1 nM)) | B (a value of 2.3 to 3) | – | – | – | – | – | –
C=CC(=O)N1CCC(Oc2cc(-c3ccc(O)cc3)nc3[nH]ncc23)CC1 [Compound 6-11] | – | – | – | A (a value of 3 or above) | > 100 | 31.6 to 200 | < 0.1 | – | – | –
C=CC(=O)N1C2CCC1CC(Oc1nc(-c3ccc(O)cc3)cc3[nH]ncc13)C2 (stereo not drawn) [Compound 9-6] | E (a pKi value of 7 or below (Ki of 100 nM or above)) | A (a pIC50 value≥7.5 (IC50≤32 nM)) | B (a pKi value between 9 and 10 (Ki between 1 nM and 0.1 nM)) | A (a value of 3 or above) | – | – | – | – | – | –
C=CC(=O)N1CCC[C@H](Oc2nc(-c3ccc(O)c(Cl)c3)nc3[nH]ncc23)C1 [Compound 8-12] | E (a pKi value of 7 or below (Ki of 100 nM or above)) | C (a pIC50 value between 6 and 6.7 (IC50 between 1 μM and 200 nM)) | B (a pKi value between 9 and 10 (Ki between 1 nM and 0.1 nM)) | A (a value of 3 or above) | – | – | – | – | – | –
CN(C)C/C=C/C(=O)N1CC2(CC(Oc3cc(-c4ccc(O)c(Cl)c4)cc4[nH]ncc34)C2)C1 [Compound 15-4] | E (a pKi value of 7 or below (Ki of 100 nM or above)) | B (a pIC50 value between 6.7 (included) and 7.5 (IC50 between 200 nM and 32 nM)) | A (a pKi value≥10 (Ki≤0.1 nM)) | A (a value of 3 or above) | – | – | – | – | – | –
CN(C)C/C=C/C(=O)N1CC[C@H]1COc1cc(-c2ccc(O)cc2)cc2[nH]ncc12 [Compound 12-24] | – | – | – | A (a value of 3 or above) | > 100 | 200 to 1000 | 0.1 to 1 | – | – | –
C=CC(=O)N1CC(C)(COc2cc(-c3ccc(O)c(F)c3)cc3[nH]ncc23)C1 [Compound 3-12] | – | – | – | – | > 100 | – | 0.1 to 1 | 31.6 to 200 | B (a value of 2.3 to 3) | –
C=CC(=O)N1CC2(CC(Oc3cc(-c4ccc(O)cc4)nc4[nH]ncc34)C2)C1 [Compound 15-8] | D (a pKi value between 7 and 8 (Ki between 100 nM and 10 nM)) | B (a pIC50 value between 6.7 (included) and 7.5 (IC50 between 200 nM and 32 nM)) | B (a pKi value between 9 and 10 (Ki between 1 nM and 0.1 nM)) | B (a value of 2.3 to 3) | – | – | – | – | – | –
O=C(/C=C/CN1CCC1)N1CC(COc2cc(-c3ccc(O)cc3)cc3[nH]ncc23)C1 [Compound 3-123] | – | – | – | – | > 100 | – | < 0.1 | 200 to 1000 | A (a value of 3 or above) | –
CN(C)C/C=C/C(=O)N1CC(C)(Oc2cc(-c3ccc(O)cc3)cc3[nH]ncc23)C1 [Compound 5-11] | E (a pKi value of 7 or below (Ki of 100 nM or above)) | – | B (a pKi value between 9 and 10 (Ki between 1 nM and 0.1 nM)) | – | – | – | – | – | A (a value of 3 or above) | B (a pIC50 value between 6.7 (included) and 7.5 (IC50 between 200 nM and 32 nM))
C=CC(=O)N1CC(OCc2cc(-c3ccc(O)cc3)nc3[nH]ncc23)C1 [Compound 16-4] | E (a pKi value of 7 or below (Ki of 100 nM or above)) | B (a pIC50 value between 6.7 (included) and 7.5 (IC50 between 200 nM and 32 nM)) | B (a pKi value between 9 and 10 (Ki between 1 nM and 0.1 nM)) | A (a value of 3 or above) | – | – | – | – | – | –
C=CC(=O)N1CCCC(Oc2cc(-c3ccc(O)c(F)c3)nc3[nH]ncc23)C1 (stereo not drawn) [Compound 8-8] | E (a pKi value of 7 or below (Ki of 100 nM or above)) | B (a pIC50 value between 6.7 (included) and 7.5 (IC50 between 200 nM and 32 nM)) | A (a pKi value≥10 (Ki≤0.1 nM)) | A (a value of 3 or above) | – | – | – | – | – | –
CN(C)C/C=C/C(=O)N1CCC(Cc2cc(-c3ccc(O)cc3)cc3[nH]ncc23)CC1 [Compound 12-14] | – | – | – | C (a value of 1.8 to 2.3) | > 100 | 200 to 1000 | 0.1 to 1 | – | – | –
CN(C)C/C=C/C(=O)N1CC(C)(COc2cc(-c3ccc(O)c(Cl)c3)cc3[nH]ncc23)C1 [Compound 3-9] | – | – | – | – | > 100 | – | 0.1 to 1 | 31.6 to 200 | B (a value of 2.3 to 3) | –
C=CC(=O)N1CCC(Nc2cc(-c3ccc(O)cc3)cc3[nH]ncc23)C(F)(F)C1 (stereo not drawn) [Compound 7-6] | D (a pKi value between 7 and 8 (Ki between 100 nM and 10 nM)) | A (a pIC50 value≥7.5 (IC50≤32 nM)) | A (a pKi value≥10 (Ki≤0.1 nM)) | B (a value of 2.3 to 3) | – | – | – | – | – | –
CN(C)C/C=C/C(=O)N1CC[C@H](COc2cc(-c3ccc(O)cc3)cc3[nH]ncc23)C1 [Compound 2-1] | D (a pKi value between 7 and 8 (Ki between 100 nM and 10 nM)) | – | A (a pKi value≥10 (Ki≤0.1 nM)) | – | – | – | – | – | B (a value of 2.3 to 3) | C (a pIC50 value between 6 and 6.7 (IC50 between 1 μM and 200 nM))
C=CC(=O)N1CCC[C@H](Sc2cc(-c3ccc(O)cc3)cc3[nH]ncc23)C1 [Compound 12-6] | – | – | – | B (a value of 2.3 to 3) | 10 to 100 | 31.6 to 200 | 0.1 to 1 | – | – | –
